Series [1] deals with subjects with moderate to severe drug-induced tardive dyskinesia (TD). Description: Open-label, single-arm long-term study in tardive dyskinesia. In kind it is in vivo, human. Conditions: by Week 6. The method, then:
An open-label, single-arm study in which male and female subjects with moderate to severe drug-induced tardive dyskinesia (TD) was conducted to evaluate the safety and tolerability of long-term maintenance therapy with deutetrabenazine, and to evaluate the efficacy of long-term maintenance therapy of deutetrabenazine to reduce the severity of abnormal involuntary movements of TD. Study Design. […] Dose Regimen. Deutetrabenazine tablets were provided in dosage strengths of 6, 9, 12, 15, and 18 mg. During dose adjustment/titration, deutetrabenazine was supplied in weekly blister cards. During long-term treatment, deutetrabenazine will be supplied in 30-count bottles. Study drug were administered as follows. All treatment regimens were administered twice daily (BID) with meals, approximately 10 hours apart during the day. […] If a subject experienced a clinically significant AE attributable to deutetrabenazine, the Investigator determined if a dose reduction or suspension was necessary. […] During titration, the investigator, in consultation with the subject determined when an adequate level of dyskinesia control had been achieved. […] If a subject experienced a clinically significant AE attributable to deutetrabenazine, the investigator determined if a dose reduction or suspension was necessary. […]

Series [2] concerns cardiac repolarization (QTcF interval). Description: TQT study, six-period crossover, placebo- and positive-controlled. As to conditions: for Maximum Placebo-Adjusted Change from Baseline in QTcF: fed. In kind it is in vivo, healthy volunteers. On the procedure: Study Design. Given the known risk for tetrabenazine to increase the QT interval, a TQT study of deutetrabenazine, which included tetrabenazine as a treatment arm, was conducted in 48 healthy volunteers. This was a single-center, randomized, double-blind, placebo- and positive-controlled six-period crossover study to evaluate the effects of low-dose (12 mg) and high-dose (24 mg) deutetrabenazine on cardiac repolarization, based on placebo-corrected, time-matched changes from baseline in the QTcF interval. Assay sensitivity was established by using moxifloxacin 400 mg as the positive control.
The key outcome measure was to determine the effect of single doses of deutetrabenazine on the QTc interval.
In the table above, ΔΔQTcF is defined as the difference between the least squares mean change from baseline for the active drug and placebo. deutetrabenazine was compared with deutetrabenazine placebo (administered under fed conditions) and tetrabenazine was compared with tetrabenazine placebo (administered under fasted conditions). […] The upper limit of the 95% one-sided confidence interval is the upper limit of the 90% 2-sided confidence interval.

The results in this text go back to US12016858B2, “Methods for the treatment of abnormal involuntary movement disorders” (AUSPEX PHARMACEUTICALS, INC., priority 2015, dated 2024).

On to `[2H]C([2H])([2H])Oc1cc2c(cc1OC([2H])([2H])[2H])C1CC(=O)C(CC(C)C)CN1CC2` (stereo not drawn) [deutetrabenazine, (RR, SS)-1,3,4,6,7,11b-hexahydro-9,10-di(methoxy-d3)-3-(2-methylpropyl)-2H-benzo[a]quinolizin-2-one], for which the “subjects much or very much improved according to PGIC and CGIC” value in series [1] is recorded as “over 50%”. Further, the “Maximum Placebo-Adjusted Change from Baseline in QTcF” value is 2.8 ms in series [2] (12 mg single dose) and 4.5 ms in series [2] (24 mg single dose). The “time point at which the maximal ΔΔQTcF was observed” value in series [2] (in vivo) is 8 h.
